Laboratory results reported in patent US20040023861A1, “Cysteinyl leukotriene receptor 2 (cysl t2)” (priority 2000, published 2004).
Each block holds one compound with its values, some of them ahead of it.

Experiments:
anesthetized rats = assay: Effect of LTD4 on hemodynamics and ECG parameters in anesthetized rats; format: in vivo
Protocol: Adult male wistar rats (270-300 g) were used. On arrival in the animal care unit, rats were housed with free access to food and water. Room temperature (19-20° C.), relative humidity (55-60%) and light (switched on 7:00am-7:00pm) were maintained constant. An adaptation period of at least 6 days was respected before experimentation.
Aninals (n=3-4) were anesthetized by administration of pentobarbital (50/60 mg/kg, i.v.). Then, animals were placed on a heatcd (36° C.) operating table and ventilated with room air (Harvard respirator, 50-52 str/min, 7 ml/kg tidal volume). Systemic arterial blood pressure was monitored routinely from the left carotid artery (P23XL, Gould). Body temperature was controlled with a thermistor probe (Digi-sense, Cole-Parmer) and maintained within physiological range throughout the experiment by heating when necessary. A Lead 11 ECG was recorded via needle electrodes to evaluate ECG intervals and heart rate and a corrected QT interval by linear regression (QTL) was calculated according to Todt(13). All parameters were monitored on a Gould thermal array polyrecorder.
The volume of injection was normalized to 1 ml/kg. In rats receiving CysLT1 antagonists as pretreatment, the compounds were previously dissolved in ethanol (2% final concentration) or distilled water and mixed in encapsin 6% for intragastric afministration (single dose of 3 μmol/kg-10 ml/kg total volume).
Results were expressed as mean±SEM Hemodynamic and electrocardiographic variables were compared using Anova followed by multiple comparisons tests (Newmam Keuls or Tukey's test as appropriate). Values of p <0.05 were considered significant.

CysLT1 = biological target: T1, CysLT1 (Homo sapiens, UniProt Q9Y271); assay: Antagonist activity against 20 nM LTD4 (NFAT luciferase reporter gene assay and FLIPR assay) at CysLT1; format: cell-based; settings: concentration dependent inhibition of 20 nM LTD4; reporter gene and FLIPR assays
T1 construct: expressed in transfected cells; host or cells: CHO cells with stably integrated NFAT-luciferase reporter (CHONFAT)
T1 sequence (Q9Y271 1-337): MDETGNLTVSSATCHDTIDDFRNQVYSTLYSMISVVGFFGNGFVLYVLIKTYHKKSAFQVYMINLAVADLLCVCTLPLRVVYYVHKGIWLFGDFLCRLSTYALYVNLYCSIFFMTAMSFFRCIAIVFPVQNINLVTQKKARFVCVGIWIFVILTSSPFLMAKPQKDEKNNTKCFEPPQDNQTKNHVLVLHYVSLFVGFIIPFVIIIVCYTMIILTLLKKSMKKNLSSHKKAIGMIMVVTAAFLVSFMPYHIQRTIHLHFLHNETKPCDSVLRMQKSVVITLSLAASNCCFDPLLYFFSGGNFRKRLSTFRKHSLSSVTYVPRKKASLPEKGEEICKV

HIPHUM0000007 = biological target: T2, HIPHUM0000007 (Homo sapiens, UniProt Q9NS75); assay: Antagonist activity against 20 nM LTD4 (NFAT luciferase reporter gene assay and FLIPR assay) at HIPHUM0000007; format: cell-based; settings: concentration dependent inhibition of 20 nM LTD4; reporter gene and FLIPR assays
T2 construct: expressed in transfected cells; host or cells: CHO cells with stably integrated NFAT-luciferase reporter (CHONFAT)
T2 sequence (Q9NS75 1-346): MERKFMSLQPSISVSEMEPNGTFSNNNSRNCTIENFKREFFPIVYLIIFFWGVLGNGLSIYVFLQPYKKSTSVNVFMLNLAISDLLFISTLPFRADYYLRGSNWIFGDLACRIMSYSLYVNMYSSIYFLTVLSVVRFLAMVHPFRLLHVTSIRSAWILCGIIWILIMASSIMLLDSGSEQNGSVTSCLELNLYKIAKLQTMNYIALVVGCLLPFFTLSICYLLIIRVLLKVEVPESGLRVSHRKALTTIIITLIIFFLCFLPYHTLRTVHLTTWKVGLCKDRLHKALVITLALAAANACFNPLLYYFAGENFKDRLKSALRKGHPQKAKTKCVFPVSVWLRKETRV

Structure (SMILES): CCCCC/C=C\C\C=C/C=C/C=C/[C@@H](SC[C@H](N)C(=O)NCC(=O)O)[C@@H](O)CCCC(=O)O [LTD4]
- effect on blood pressure (anesthetized rats; LTD4 i.v. injection 20, 40 and 100 nmol/kg, anesthetized rats): affected blood pressure in a dose-dependent manner
- reduction in heart rate (anesthetized rats; bolus intravenous administration of LTD4, anesthetized rats): 20-30%
- rhythm disturbances (arrhythmias) (anesthetized rats; repeated administration of LTD4, doses in the range of 40 to 60 nmol/kg, anaesthetised rats): induced marked rhythm disturbances

Structure (SMILES): CCCCC/C=C\C\C=C/C=C/C=C/[C@@H](Sc1ccc(C(=O)O)cc1)[C@@H](O)CCCC(=O)O [BayU9773]
- antagonist activity at HIPHUM0000007 (HIPHUM0000007): low potency
- antagonist activity at CysLT1 (CysLT1): low potency

Structure (SMILES): CN(C)C(=O)CCSC(SCCC(=O)O)c1cccc(/C=C/c2ccc3ccc(Cl)cc3n2)c1 (stereo not drawn) [MK571]
- effect of CysLT1 antagonist on LTD4 response on blood pressure (anesthetized rats; antagonist 3 μmol/kg oral 10 min or 0.3 μmol/kg i.v. 5 min before LTD4 i.v., anesthetized rats): modest partial inhibition
- effect of pretreatment on LTD4-induced reduction in heart rate (anesthetized rats; pretreatment with CysLT1 antagonist before LTD4 i.v., anesthetized rats): not significantly altered

Other lines, results leading:

- antagonist activity at CysLT1 (CysLT1): acted as antagonists
Structure (SMILES): COc1cc(C(=O)NS(=O)(=O)c2ccccc2C)ccc1Cc1cn(C)c2ccc(NC(=O)OC3CCCC3)cc12 [Zafirlukast]

- antagonist activity at HIPHUM0000007 (HIPHUM0000007): inactive
Structure (SMILES): CC(C)(O)c1ccccc1CC[C@@H](SCC1(CC(=O)O)CC1)c1cccc(/C=C/c2ccc3ccc(Cl)cc3n2)c1 [Montelukast]
